Test systems include SF-539; HOP-62; 786-0; K562; UACC-257; A549; OVCAR-3; SK-OV-3; COLO 205; NCI-H23; OVCAR-8; SK-MEL-2; SNB-75; NCI-H460; EKVX; SK-MEL-28; NCI/ADR-RES; PC-3.
Assay in all cases: NCI tumour cell line growth inhibition, 48 h

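Cells were grown in 96-well plates and exposed to each compound for 48 hours at five concentrations; endpoints were interpolated linearly between bracketing concentrations, or set to the highest concentration if not reached. At the GI50, growth is halved.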 Active and inactive are the calls of the source. Rule as the data show it: active = GI50 up to about 1.1 µM and inactive = higher.

Consider `CCN(CCCl)CCCNc1c2ccccc2nc2ccc(OC)cc12`, for which the GI50 was 0.142 µM (active) with SF-539; 0.605 µM (active) in the assay on HOP-62; 0.114 µM (active) in the assay on 786-0; 0.0861 µM (active) in the assay on K562; 1.16 µM (inactive) in the assay on UACC-257; 0.232 µM (active) in the assay on A549. Moreover, the GI50 in the assay with OVCAR-3 is 1.1 µM (active); in the assay on SK-OV-3 it was 1.04 µM (active); in the assay on COLO 205, 0.0964 µM (active); in the assay with NCI-H23 it was 0.12 µM (active); in the assay with OVCAR-8, 0.0857 µM (active); with SK-MEL-2, 0.418 µM (active). Also, the GI50 is 0.635 µM (active) in the assay on SNB-75, 0.0802 µM (active) in the assay on NCI-H460, 1.02 µM (active) in the assay on EKVX and 0.743 µM (active) in the assay with SK-MEL-28.

Take `Cc1ccccc1NC(=O)C(=O)C(C(=O)c1ccccc1F)C1OC(=O)c2ccccc21` (stereo not given): the GI50 in the assay with SF-539 is 8.32 µM (inactive); with HOP-62, 17.3 µM (inactive); in the assay on 786-0, 16.3 µM (inactive); with K562 it was 24.3 µM (inactive); in the assay with UACC-257 it was 21.1 µM (inactive); in the assay on A549, 42.2 µM (inactive). In addition, the GI50 in the assay on OVCAR-3 is 24.6 µM (inactive); in the assay with SK-OV-3, 34.1 µM (inactive); in the assay with COLO 205 it was 21.3 µM (inactive); in the assay on NCI-H23, 10.3 µM (inactive); in the assay on OVCAR-8 it was > 10 µM (inactive); with SK-MEL-2, 24.7 µM (inactive). Besides, the GI50 with SNB-75 was 8.39 µM (inactive); with NCI-H460, 32.9 µM (inactive); in the assay on EKVX, 96.6 µM (inactive); in the assay on SK-MEL-28, 16.5 µM (inactive).

With `CCC12C=CCN3CCC4(C(=C(C(=O)OC)[C@@H]1O)Nc1ccccc14)C32` (stereo not given in full), the GI50 was 2.07 µM (inactive) in the assay with SF-539; 2.12 µM (inactive) in the assay with HOP-62; 1.64 µM (inactive) with 786-0; 2.03 µM (inactive) with K562; 1.1 µM (active) in the assay on UACC-257; 2.09 µM (inactive) in the assay with A549. Besides, the GI50 is 1.99 µM (inactive) in the assay with OVCAR-3; 2.43 µM (inactive) with SK-OV-3; 1.81 µM (inactive) in the assay on COLO 205; 1.85 µM (inactive) in the assay on NCI-H23; 2.04 µM (inactive) in the assay on OVCAR-8; 1.9 µM (inactive) with SK-MEL-2. In addition, the GI50 in the assay with SNB-75 was 1.9 µM (inactive); with NCI-H460, 1.87 µM (inactive); with EKVX, 1.85 µM (inactive); with SK-MEL-28, 1.95 µM (inactive).

On to `CC(O)C(NC(=O)c1ccccc1)C(=O)N(Cc1ccccc1)Cc1ccccc1` (stereo not given), for which the GI50 was > 100 µM (inactive) in the assay on SF-539; > 100 µM (inactive) with HOP-62; > 100 µM (inactive) in the assay on 786-0; 97.9 µM (inactive) in the assay with K562; 80.4 µM (inactive) in the assay on UACC-257; 80.9 µM (inactive) with A549. Moreover, the GI50 in the assay with OVCAR-3, in the assay on SK-OV-3, with COLO 205, in the assay with NCI-H23, with OVCAR-8 and with SK-MEL-2 was > 100 µM (inactive) in each case. In addition, the GI50 with SNB-75 is 47.5 µM (inactive); in the assay on NCI-H460 it was > 100 µM (inactive); with EKVX, > 100 µM (inactive); in the assay on SK-MEL-28, > 100 µM (inactive).

In the case of `c1ccc(C(c2ccccc2)c2ccncc2)cc1`, the GI50 with SF-539 is > 100 µM (inactive); in the assay with HOP-62, > 100 µM (inactive); with 786-0, > 100 µM (inactive); in the assay on K562, > 100 µM (inactive); in the assay on UACC-257, 61 µM (inactive); in the assay on A549 it was > 100 µM (inactive). Besides, the GI50 in the assay with OVCAR-3, in the assay on SK-OV-3, in the assay with COLO 205, with NCI-H23, in the assay with OVCAR-8 and with SK-MEL-2 was > 100 µM (inactive) each time. In addition, the GI50 in the assay on SNB-75 is 18 µM (inactive); in the assay with NCI-H460 it was > 100 µM (inactive); in the assay on EKVX, > 100 µM (inactive); in the assay with SK-MEL-28, > 100 µM (inactive).

Turning to `CC(=O)OCSc1ncnc2c1ncn2CN1CCOCC1`, the GI50 is 6.82 µM (inactive) in the assay on SF-539; 10 µM (inactive) in the assay on HOP-62; 7.91 µM (inactive) in the assay on 786-0; 0.841 µM (active) in the assay on K562; 53.5 µM (inactive) in the assay on UACC-257; 44.6 µM (inactive) in the assay with A549. Moreover, the GI50 in the assay with OVCAR-3 was 7.23 µM (inactive); in the assay with SK-OV-3, 2.01 µM (inactive); in the assay on COLO 205 it was 18.8 µM (inactive); in the assay with NCI-H23 it was 11.9 µM (inactive); with OVCAR-8, 28.9 µM (inactive); with SK-MEL-2, > 100 µM (inactive). In addition, the GI50 in the assay on SNB-75 was 13.2 µM (inactive); in the assay with NCI-H460, 18.2 µM (inactive); with EKVX it was > 100 µM (inactive); with SK-MEL-28, > 100 µM (inactive).

As for `CC(C)[Si](OC12CCC(CC1O)CC2CO)(C(C)C)C(C)C` (stereo not given), the GI50 was 23.4 µM (inactive) in the assay on SF-539; 16.4 µM (inactive) with HOP-62; 15 µM (inactive) with NCI/ADR-RES; 10.5 µM (inactive) in the assay on 786-0; 14.7 µM (inactive) in the assay on K562; 13.7 µM (inactive) with UACC-257. Also, the GI50 is 10.4 µM (inactive) in the assay with A549; 14.5 µM (inactive) in the assay on OVCAR-3; 14.4 µM (inactive) in the assay on SK-OV-3; 18 µM (inactive) with COLO 205; 12.8 µM (inactive) in the assay with NCI-H23; 11.8 µM (inactive) with PC-3. Besides, the GI50 in the assay with OVCAR-8 was 16.2 µM (inactive); with SK-MEL-2, 15.8 µM (inactive); with SNB-75, 13.9 µM (inactive); with NCI-H460, 12.6 µM (inactive); in the assay with SK-MEL-28 it was 20.4 µM (inactive).

In the case of `COc1ccc(OC)c(/C=N/N=C(\N)NO)c1`, the GI50 in the assay on SF-539 is 7.62 µM (inactive); in the assay on HOP-62, 29.6 µM (inactive); in the assay with 786-0 it was 21.4 µM (inactive); with K562, 6.81 µM (inactive); in the assay on UACC-257 it was 30.5 µM (inactive); with A549, 8.22 µM (inactive). In addition, the GI50 in the assay with OVCAR-3 is 23.8 µM (inactive); in the assay on SK-OV-3 it was 30.7 µM (inactive); in the assay on COLO 205, 10.6 µM (inactive); in the assay with NCI-H23, 27 µM (inactive); in the assay on OVCAR-8, 27.7 µM (inactive); with SK-MEL-2, 42.3 µM (inactive). Besides, the GI50 in the assay on SNB-75 is 72.4 µM (inactive); with NCI-H460, 15 µM (inactive); in the assay on EKVX it was 13.3 µM (inactive); with SK-MEL-28, 75.7 µM (inactive).

Regarding `OC1(C(Sc2ccccc2)Sc2ccccc2)CCCCCC1`, the GI50 with SF-539 was 21.9 µM (inactive); with HOP-62, 21.9 µM (inactive); with 786-0, 22.4 µM (inactive); in the assay with K562 it was > 10 µM (inactive); with UACC-257, 26.9 µM (inactive); with A549 it was 28 µM (inactive). Besides, the GI50 is 20.9 µM (inactive) with OVCAR-3; 22.5 µM (inactive) in the assay on SK-OV-3; 23.6 µM (inactive) with COLO 205; 35.8 µM (inactive) with NCI-H23; 38.8 µM (inactive) in the assay with OVCAR-8; 18.1 µM (inactive) in the assay on SK-MEL-2. Further, the GI50 was 33.4 µM (inactive) in the assay on SNB-75, 28.2 µM (inactive) with NCI-H460, 21.2 µM (inactive) in the assay with EKVX and 56.1 µM (inactive) with SK-MEL-28.

The record behind these values is ChEMBL document CHEMBL1201862, “PubChem BioAssay data set” (2004).
